Measurements reported in patent US4321274A, “Substituted 1-(cinnamylideneamino)-3-benzyli-deneaminoguanidines active against Giardia lamblia and Trichomonas vaginalis” (priority 1980, dated 1982).
≈ marks a conversion by molar mass, not a printed value. Where two headings read alike, the source gives them in different places.

Key:
Giardia lamblia [1] = experiment: In vitro anti-G. lamblia activity (50% inhibition of growth, viable cell count); assay type: cell-based; conditions: Giardia duodenalis, 37° C., anaerobic, about 16-24 hrs (Example 1: 24 hours), vs DMSO controls, read-out: Anti-G. lamblia ED50
Description: (§1) About 1.0-2.0 ml of a nutrient medium, for example, the modified Diamond's TPS medium at pH 7.05, together with about 10% by volume of heat-inactivated serum and about 1% by volume of antibiotic-antimycotic solution is placed in each well of a multiwell plate. To this mixture, an aliquot of a suspension of G. lamblia cells containing about […] is added. Subsequently, each well is inoculated with a known concentration of one of the active compounds, for example, 1-(3,4-dichlorocinnamylideneamino)-3-(4-cyanobenzylideneamino)guanidine. The multiwell plate containing the individual culture samples is incubated under anaerobic conditions at about 37° C. for about 16-24 hrs. The number of viable cells remaining in each well are then counted, such as with a hemacytometer. The percentage of survival is determined by comparison to controls inoculated with DMSO (dimethylsulfoxide) and the effective concentration (in parts per million) for 50% inhibition of growth (ED50) is determined. It is established that the lower the number of the value of ED50, the higher the activity of the active compound.
In each well of a multiwell plate is placed 1.4 ml of media mix containing Diamond's TPS medium (see Table 2) at pH 7.05, 10% by volume of heat-inactivated fetal bovine serum, and 1% by volume of an antibiotic-antimycotic solution (see Table 3). A suspension of Giardia lamblia is centrifuged at 2,500 xg. for 6 minutes. The cells are resuspended in a small volume of the Diamond's medium, counted, and each well inoculated with approximately 10^6 organisms. A stock solution of 1-(4-chlorocinnamylideneamino)-3-(3,4-dichlorobenzylideneamino)guanidine in dimethylsulfoxide is made at a concentration of 150 μg/ml. The wells are then inoculated with various concentrations of the drug. The plates are incubated for 24 hours at 37° C. in an anaerobic Gas Pak jar. After 24 hours of incubation each well is mixed and counted for viable organisms using a hemacytometer. The percentage of survival is determined by comparing the treated wells to controls treated with dimethylsulfoxide.
Employing substantially the similar procedure as described in Example 1 but substituting for 1-(4-chlorocinnamylideneamino)-3-(3,4-dichlorobenzylideneamino)guanidine used therein other active compounds, there are obtained similar results indicating the anti- G. lamblia activities of the compounds included above in Table 1.

T. vaginalis 30001 = experiment: In vitro anti-T. vaginalis activity (50% inhibition of growth); assay type: cell-based, Trichomonas vaginalis; conditions: for IC50: Trichomonas vaginalis
Description: The activity of these compounds against Giardia lamblia and Trichomonas vaginalis are shown by the following test:
as §1
Employing essentially the same method of Example 1, centrifuged cells of T. vaginalis 30001 are inoculated with 1-(4-chlorocinnamylideneamino)-3-(3,4-dichlorobenzylideneamino)guanidine at 37° C. for 24 hours.
Similarly, previously described compounds (2) to (10) and the pharmaceutically acceptable salts thereof an active anti- T. vaginalis agents as shown in Table 1.

Giardia lamblia [2] = conditions: New York Times, June 10, 1980; cited from earlier work
Trichomonas vaginalis = conditions: has been reported; cited from earlier work
animals = conditions: cited from earlier work
[3] = cited from earlier work
[4] = in vitro, 37° C., 24 hours, Table 1, read-out: Anti-T. vaginalis ED50

SMILES | IC50 (Giardia lamblia [1]) | IC50 (T. vaginalis 30001; [4]) | further results
CN(N=Cc1ccc(Cl)cc1)C(=N)NN=CC=Cc1ccc(Cl)c(Cl)c1 [(4), 1-(3,4-dichlorocinnamylideneamino)-3-(4-chlorobenzylideneamino)-3-methyl-guanidine] | 0.58 µg/mL (≈ 1.42 µM) | 2.5 µg/mL (≈ 6.12 µM) | 
CN(N=Cc1ccc([N+](=O)[O-])cc1)C(=N)NN=CC=Cc1ccc(C(F)(F)F)cc1 [(10), 1-(4-trifluoromethylcinnamylideneamino)-3-(4-nitrobenzylideneamino)-3-methyl-guanidine] | 1 µg/mL (≈ 2.39 µM) | 3.25 µg/mL (≈ 7.77 µM) | 
N=C(NN=CC=Cc1ccc(Cl)cc1)NN=Cc1ccc(Cl)c(Cl)c1 [(1), 1-(4-chlorocinnamylideneamino)-3-(3,4-dichlorobenzylideneamino)guanidine] | 1.1 µg/mL (≈ 2.79 µM) |  | IC50 (T. vaginalis 30001; Example 2, 37° C. for 24 hours, unit inferred, read-out: ED50 value, anti-T. vaginalis): 2.25 µg/mL (≈ 5.7 µM); anti-T. vaginalis activity in words (T. vaginalis 30001; in vitro, method of Example 1/2): effective anti- T. vaginalis agent
Cc1ncc([N+](=O)[O-])n1CCO [Flagyl (metronidazole), metronidazole] | 6.2 µg/mL (≈ 36.2 µM) | < 1 µg/mL | treatment of giardiasis (Giardia lamblia [2]): successfully treated; therapy of trichomoniasis (Trichomonas vaginalis): Successful therapy; carcinogenicity (animals): carcinogenic in animals; adverse side effects ([3]; in vivo): known to cause adverse side effects
N#Cc1ccc(C=NNC(=N)NN=CC=Cc2ccc(Cl)c(Cl)c2)cc1 [(7), 1-(3,4-dichlorocinnamylideneamino)-3-(4-cyanobenzylideneamino)guanidine] | 0.57 µg/mL (≈ 1.48 µM) | 1 µg/mL (≈ 2.6 µM) | 
CN(N=Cc1ccc(Cl)cc1)C(=N)NN=CC=Cc1ccc(C#N)cc1 [(3), 1-(4-cyanocinnamylideneamino)-3-(4-chlorobenzylideneamino)-3-methyl-guanidine] | 0.85 µg/mL (≈ 2.33 µM) | 3.25 µg/mL (≈ 8.91 µM) | 
CN(N=Cc1ccc(Cl)cc1)C(=N)NN=CC=Cc1ccc(Cl)cc1 [(8), 1-(4-chlorocinnamylideneamino)-3-(4-chlorobenzylideneamino)-3-methyl-guanidine] | 1.4 µg/mL (≈ 3.74 µM) | 2.67 µg/mL (≈ 7.13 µM) | 
CCN(CC)CCCC(C)Nc1c2ccc(Cl)cc2nc2ccc(OC)cc12 (stereo not shown) [Atabrine] |  |  | treatment of giardiasis (Giardia lamblia [2]): successfully treated; adverse side effects ([3]; in vivo): known to cause adverse side effects
CN(N=Cc1ccc(Cl)cc1)C(=N)NN=CC=Cc1ccc(C(F)(F)F)cc1 [(2), 1-(4-trifluoromethylcinnamylideneamino)-3-(4-chlorobenzylideneamino)-3-methylguanidine] | 0.8 µg/mL (≈ 1.96 µM) | 2.75 µg/mL (≈ 6.74 µM) | 
CN(N=Cc1ccc(C(F)(F)F)cc1)C(=N)NN=CC=Cc1ccc(Cl)cc1 [(9), 1-(4-chlorocinnamylideneamino)-3-(4-trifluoromethylbenzylideneamino)-3-methyl-guanidine] | 1.3 µg/mL (≈ 3.19 µM) | 2.38 µg/mL (≈ 5.84 µM) | 
CN(N=Cc1ccc(C(F)(F)F)cc1)C(=N)NN=CC=Cc1ccc(C#N)cc1 [(5), 1-(4-cyanocinnamylideneamino)-3-(4-trifluoromethylbenzylideneamino)-3-methyl-guanidine] | 1.5 µg/mL (≈ 3.77 µM) | 3.25 µg/mL (≈ 8.16 µM) | 
O=C1OCCN1/N=C/c1ccc([N+](=O)[O-])o1 [furazolidone] |  |  | treatment of giardiasis (Giardia lamblia [2]): successfully treated; adverse side effects ([3]; New York Times, June 10, 1980): known to cause adverse side effects
CN(N=Cc1ccc(C(F)(F)F)cc1)C(=N)NN=CC=Cc1ccc(Cl)c(Cl)c1 [(6), 1-(3,4-dichlorocinnamylideneamino)-3-(4-trifluoromethylbenzylideneamino)-3-methyl-guanidine] | 0.73 µg/mL (≈ 1.65 µM) | 2.67 µg/mL (≈ 6.04 µM) | 
